Test results from US20210348164A1, “ENDOGENOUS CYTOPLASMIC ALU COMPLEMENTARY DNA IN AGE-RELATED MACULAR DEGENERATION” (University of Virginia Patent Foundation, priority 2018, published 2021).
“Also recorded” adds a separate entry of the source.

Legend:
[1] = tested on: reverse transcriptase activity of cytoplasmic fractions of F9 cells; test: In vitro reverse transcriptase activity of cytoplasmic fractions (Alu RNA-templated, Alu-specific qPCR); type: biochemical, mouse
Procedure: In vitro reverse transcriptase (RT) activity. In vitro reverse transcriptase (RT) activity in nuclear and cytoplasmic protein fractions was assessed using an Alu RNA-templated reaction. The RT reaction was carried out in a 20 μl reaction mix containing Alu RNA template (10 ng); Alu primer ([…]); dNTPs mix; cytoplasmic or nuclear protein, and Quantiscript RT Buffer (Qiagen). The reaction mixture was incubated at 42° C. for 30 minutes. The resulting cDNA was quantified by qPCR using Alu RNA template-specific primers. The reaction to evaluate self-priming activity of Alu RNA was carried out in the absence of priming oligos in a 20 μl reaction mix containing: Alu RNA with 3′-U tail; dNTP mix; cytoplasmic protein from mouse RPE cells; and Quantiscript RT Buffer (Qiagen) as described above. The resulting cDNA product was quantified by qPCR using Alu RNA template-specific primers. Alu RNA tailed on the 3′ end with chain terminator dideoxy thymidine base (ddTTP) was generated using TdT (New England Biolabs (NEB)) according to the manufacturer's instructions. Alu RNA tailed on the 3′ end with chain terminator cordycepin tri-phosphate was generated using PAP (NEB) according to the manufacturer's instructions.

[2] = tested on: reverse transcriptase; settings: Fowler et al., 2014; Ambati et al., 2018; cited from earlier work
[3] = tested on: Alu cDNA in primary human RPE cells; test: Alu cDNA in primary human RPE cells (Alu c-PCR, real-time PCR, in situ hybridization, equator blotting); type: cell-based; settings: primary human RPE cells; cytoplasmic fraction; Alu c-PCR
Procedure: Cell culture and transfection. Primary mouse and human RPE cells were isolated as previously described (Kerur et al., 2018). All cells were maintained at 37° C. in a 5% CO2 environment. Mouse RPE cells were cultured in DMEM supplemented with 20% FBS and penicillin/streptomycin antibiotics at standard concentrations; primary human RPE cells were maintained in DMEM supplemented with 10% FBS and antibiotics. The human RPE cell line ARPE19 was cultured as previously described (Kerur et al., 2018) and maintained in DMEM-F12 containing penicillin/streptomycin, Fungizone, and gentamicin. HEK293T cells were cultured in DMEM with 10% fetal bovine serum (FBS) with 100 U/ml penicillin/streptomycin and 2 mM L-glutamine. Primary wild-type mouse bone marrow-derived macrophages (BMDMs) were isolated, and cultured in Iscove's Modified Dulbecco's Medium (IMDM) supplemented with 30% L929 supernatant containing macrophage-stimulating factor, nonessential amino acids, sodium pyruvate, 10% FBS and antibiotics, 50 μM β-mercaptoethanol (Seo et al., 2015), and serum starved in IMDM with 1% FBS and 100 U/ml penicillin/streptomycin overnight prior to LPS stimulation. NRTIs or NNRTIs were added 30 minutes prior to LPS stimulation and again 30 minutes prior to ATP activation. LPS (100 ng/mL) was added for 3-4 hours prior to the addition of ATP. Cell lysates were collected 30 minutes after addition of ATP (5 mM). Primary human subcutaneous pre-adipocytes (Catalogue No. PCS-210-010, ATCC, Manassas, Va., United States of America) and primary human dermal fibroblasts (Catalogue No. PCS-201-012, ATCC) were grown in fibroblast basal medium with fibroblast growth kit for low serum (ATCC).
Umbilical artery vascular smooth muscle cells (Catalogue No. CC-2579, Lonza, Morristown, N.J., United States of America) were grown in SMGM™-2 Smooth Muscle Growth Medium-2 BULLETKIT™ (Lonza). Primary human skeletal myoblasts (Catalogue No. A11440, Thermo Fisher Scientific) were grown in DMEM with 2% horse serum. Primary human epidermal keratinocytes (Catalogue NO. CO215C, Thermo Fisher Scientific) were grown in EPILIFE® Medium (Thermo Fisher Scientific). Human umbilical vein endothelial cells (HUVEC) were grown in HUVEC EGM™-2 Media (Lonza). Primary human peripheral blood mononuclear cells (Catalogue NO. PCS-800-011, ATCC) were directly used without culture for experiments. RPMI 1640 medium with 10% human serum with human GM-CSF (Miltenyi Biotec Inc., Auburn, Calif., United States of America) was used as media during the experiment. Transfections were performed according to the manufacturer's instructions (LIPOFECTAMINE® 2000, Invitrogen). For transfection of primary human peripheral blood mononuclear cells, HiPerFect Transfection Reagent (Qiagen) was used as previously described (Troegeler et al., 2014). NRTIs were administered 60 minutes before transfection and added again upon replacement of media at 8 hours. To induce acid injury or osmotic stress, primary human RPE cells were treated with HCl (pH 4.0 media) or H2O for 30 minutes, 1 hour, and 2 hours at 37° C. in 5% CO2, respectively. NIH3T3 Tet-ON cells were cultured in DMEM with 10% tetracycline-free fetal bovine serum (FBS) with 100 U/ml penicillin/streptomycin. NIH3T3 Tet-ON cells were transfected with pLD401 (see Taylor et al., 2013; gift of J. D. Boeke, Institute for Systems Genetics, NYU Langone Health, New York, New York, United States of America) and human L1 ORF1p abundance was monitored after 24 hours of doxycycline induction. […]

[4] = tested on: Alu cDNA in ARPE-19 cells; test: Alu cDNA in ARPE-19 cells (Alu c-PCR, in situ hybridization); type: cell-based, human; settings: Alu c-PCR
Procedure: Cell culture and transfection. Primary mouse and human RPE cells were isolated as previously described (Kerur et al., 2018). All cells were maintained at 37° C. in a 5% CO2 environment. Mouse RPE cells were cultured in DMEM supplemented with 20% FBS and penicillin/streptomycin antibiotics at standard concentrations; primary human RPE cells were maintained in DMEM supplemented with 10% FBS and antibiotics. The human RPE cell line ARPE19 was cultured as previously described (Kerur et al., 2018) and maintained in DMEM-F12 containing penicillin/streptomycin, Fungizone, and gentamicin. HEK293T cells were cultured in DMEM with 10% fetal bovine serum (FBS) with 100 U/ml penicillin/streptomycin and 2 mM L-glutamine. […]
In situ hybridization. […] Visualization of fluorescein-labelled probe was performed with the TSA™ plus fluorescence system or the TSA™ plus Cy5 system (PerkinElmer). The fluorescent or Cy5 signals were detected using a Leica SP-5 or MR Nikon confocal microscope system. […]

For azidothymidine triphosphate [AZT-TP], the “Alu cDNA formation from Alu RNA (reverse transcriptase activity)” value [1] is given as “reduced Alu cDNA synthesis; also recorded: reduced Alu cDNA formation” and the “inhibition of reverse transcriptase” value [2] is given as “inhibits reverse transcription”.

For `Cc1cn([C@H]2C=C[C@@H](CO)O2)c(=O)[nH]c1=O` [d4T, 2′,3′-didehydro-2′,3′-dideoxythymidine], the “Endogenous Alu cDNA abundance” value [3] was “dramatically decreased Alu cDNA levels; also recorded: reduced” and the “Endogenous Alu cDNA abundance” value [4] was “reduced”.
